What was measured:
[1] = Storage stability (chemical and polymorphic); format: physicochemical
Excerpt: A crystalline form according to Paragraph 2, which is characterized by an X-ray powder diffraction pattern having peaks at 5.8, 7.3, 12.9, 15.9, 16.5 and 18.6 degrees two theta±0.2 degrees two theta and also having any one, any two, any three or more additional peaks selected from: 4.3, 9.4, 10.0, 10.9 and 14.7 two theta±0.2 degrees two theta. • 4. A crystalline form according to Paragraph 2, which is characterized by the X-ray powder diffraction pattern having peaks at 7.3, 16.5, 9.4, 10.9 and 14.7 two theta±0.2 degrees two theta and also having any one, any two, any three or more additional peaks selected from: 4.3, 5.8, 10.0, 12.9, 15.9 and 18.6 two theta±0.2 degrees two theta and optionally further characterized by an FTIP spectrum as depicted in FIG. 6. • 5. A crystalline form according to Paragraph 1 or Paragraph 2, which is characterized by the X-ray powder diffraction pattern having peaks at 4.3, 5.8, 7.3, 9.4, 10.0, 10.9, 12.9, 14.7, 15.9, 16.5, and 18.6 two theta±0.2 degrees two theta±0.2 degrees two theta. • 6. A crystalline form according to Paragraph 5, which is further characterized by X-ray powder diffraction d-spacings at: 20.341, 15.261, 12.068, 9.397, 8.826, 8.092, 6.863, 6.024, 5.583, 5.353 and 4.773 Å±0.1 Å. • 7. A crystalline form according to any of Paragraphs 1, 2, 3 or 4, further characterized by an X-ray powder diffraction pattern having one, two, three, four five, or more than 5 additional peaks selected from: 4.3, 5.0, 5.5, 5.8, 7.3, 8.5, 8.9, 9.4, 10.0, 10.9, 11.6, 12.9, 13.7, 13.9, 14.7, 14.8, 15.1, 15.3, 15.9, 16.5, 17.3, 17.6, 18.6, 19.1, 19.5, 20.3, 21.2, 21.9 and 23.1 degrees two theta±0.2 degrees two theta. • 8. A crystalline form according to any of Paragraphs 1, 2, 3, 4, 5, 6 or 7, which is characterized by an X-ray powder diffraction pattern having peaks at: 4.3, 5.0, 5.5, 5.8, 7.3, 8.5, 8.9, 9.4, 10.0, 10.9, 11.6, 12.9, 13.7, 13.9, 14.7, 14.8, 15.1, 15.3, 15.9, 16.5, 17.3, 17.6, 18.6, 19.1, 19.5, 20.3, 21.2, 21.9 and 23.1 degrees two theta±0.2 degrees two theta. • 9. A crystalline form according to Paragraph 8, which is further characterized by the absence of any peak (defined as relative intensity I/Io of less than 1%) between any of two neighboring peaks. • 10. A crystalline form according to any of Paragraphs 1, 2, 3, 4, 5, 6, 7, 8 or 9, further characterized by an X-ray powder diffraction pattern as depicted in FIG. 1 or FIG. 14 and/or a solid state ^13C NMR as depicted in FIG. 5. • 11. A crystalline form according to any of Paragraphs 1, 2, 3, 4, 5, 6, 7, 8, 9 or 10, further characterized by a DSC as depicted in FIG. 2. • 12. A crystalline form according to any of Paragraphs 2-11 further characterized by a solid state ^13C NMR spectrum having peaks at 176.8, 161.9, 141.1, 139.5, 138.6, 137.2, 129.3, 128.7, 126.3, 124.9, 64.2, 60.6, 47.5, 46.1, 40.1, 39.0, 38.1, 34.3, 32.7, 29.8, 28.2, 22.4, 20.2, 17.8, 16.5, 13.7, 11.7 ppm±0.2 ppm. • 13. […] A crystalline form according to any of Paragraphs 1, 2, 3, 4, 5, 6, 7, 8, 9, 10, 11, 12, 13, 14 or 15, which is a hydrate, preferably wherein the crystalline form contains from 5.2 to 5.7 wt % water. • 17. A crystalline form according to any of Paragraphs 1, 2, 3, 4, 5, 6, 7, 8, 9, 10, 11, 12, 13, 14, 15 or 16, comprising agglomerates having spherical morphology, preferably wherein: at least 50%, at least 60%, at least 70%, at least 80% or at least 90% of the agglomerates have spherical morphology, preferably wherein the circularity of at least 50% (preferably: at least 60%, at least 70%, at least 80% or at least 90%) of the particles on a volume basis is: greater than or equal to about 0.85, about 0.86 to 1, about 0.88 to about 0.98, about 0.90 to about 0.96, about 0.92 to about 0.96. • 18. […] A process according to any of Paragraphs 18 or 19, wherein the solution in step (i) is prepared by heating, preferably to a temperature of about 80° C. to about 150° C., about 90° C. to about 130° C. • 21. […]

[2] = Circularity (morphology) by image analysis, Morphologi G3; format: physicochemical; details: agglomerates, sieved through 300 μm, volume basis; e.g. as prepared according to Example 19
Excerpt: As used herein, circularity refers to the ratio of the perimeter of a circle with the same area as the particle divided by the perimeter of the actual particle image. Circularity is preferably determined by measurement of the particles following sieving through a sieve having a pore size of 300 μm. The particles are preferably measured following analysis of photographs of the particles at an appropriate magnification (e.g. 2.5 to 5.0 times magnification). More particularly, the sample is analyzed using Morphologi G3 instrumentation. The collected data can be processed using image analysis. Circularity is a ratio of the perimeter of a circle with the same area as the particle divided by the perimeter of the actual particle image.
Sample was sieved through a sieve with pore size 300 μm. The sieved material was dispersed on the glass surface at 0.5 bar and then images were taken at 2.5-5.0× magnification using Morphologi G3 (Malvern). Collected data was processed using image analysis. Circularity is a ratio of the perimeter of a circle with the same area as the particle divided by the perimeter of the actual particle image.

[3] = characterized according to Carr RL, Chem Eng 1965
Experimental: Whole amount material was put in graduated cylinder. A graduated cylinder with the sample was attached to Erweka SVM tapped density tester and tapped with 1250 strikes. Volume of the powder is measured. Bulk density is measured as ratio between mass of sample (ms) and unsettled apparent volume (V0) of sample in graduated cylinder. Tap Density is measured as ratio between mass of sample (ms) and final tapped volume of sample (Vf). Compressibility index and Hausner ratio were calculated according to obtained results of bulk and tapped density.

## trisodium valsartan:sacubitril [Form II]
[1]; protected from moisture, stored at 25° C./60% RH
  chemical and polymorphic stability: chemically and polymorphically stable
[1]; protected from moisture, stored at 40° C./75% RH
  chemical and polymorphic stability: chemically and polymorphically stable
[1]; protected from moisture, stored at 50° C.
  chemical and polymorphic stability: chemically and polymorphically stable
[1]; protected from moisture, stored at 50° C./80% RH
  chemical and polymorphic stability: chemically and polymorphically stable
[1]; stored for 8 weeks at 25° C./60% RH
  chemical and polymorphic stability: chemically and polymorphically stable
[1]; stored for 8 weeks at 50° C.
  chemical and polymorphic stability: chemically and polymorphically stable
[2]
  circularity (v0.5): greater than 0.85
[3]
  flow properties: good-excellent

— patent US10689352B2, “Solid state forms of trisodium valsartan: sacubitril” (Teva Pharmaceuticals International GMBH, priority 2015, dated 2020)
